Data: the supplement of paper PMC11208160

Experiment: recombinant barcode read abundance after kanamycin selection (control-corrected) (log10(CPM+1)); higher = more efficient recombination; sequences stand for … in AGTGCAGAGAAAATCGGCCAGTTTTCTCTGCCTGCAGTCCGCATGCCGT…AGATTTATGCAGCGGACTGCCTTTCTCCCAAAGTGATAAACCGGACAGTATCATGGACCGGTTTTCCCGGTAATCCGTATTTGCAAGGTTGGTTTCACT; site = the 11-nt target
Outline: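 Oligos holding a promoter, target, barcode and the J23119-driven first 104 bases of the bridge RNA were Gibson-cloned into a vector that supplied the other 73 bp plus a T7-inducible recombinase. This library was co-electroporated with a donor plasmid into E. coli. Two replicates went on chloramphenicol/ampicillin LB agar (control) and two on chloramphenicol/ampicillin/kanamycin with 0.1 mM IPTG. Recombination efficiency is read from averaged, control-corrected barcode counts per million at recombinant junctions, reported as log10(CPM+1).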
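Note: IS621 recombinase and bridge RNA in Escherichia coli cells.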

Sequence	recombinant barcode read abundance (log10)
TAGCCTACTTGGGTTCTAACCTGTTGCGA (site TAGCCTACTGC)	0.00843
TAGCCTACTTGGGTTCTAACCTGTTGCGA (site TAGCCTACTTC)	1.2
TAGCCTACTTGGGTTCTAACCTGTTGCGC (site TAGCCTACTAC)	0.0597
TAGCCTACTTGGGTTCTAACCTGTTGCGC (site TAGCCTACTCC)	0.0856
TAGCCTACTTGGGTTCTAACCTGTTGCGC (site TAGCCTACTGC)	1.84
TAGCCTACTTGGGTTCTAACCTGTTGCGC (site TAGCCTACTTC)	0.0255
TAGCCTACTTGGGTTCTAACCTGTTGCGT (site TAGCCTACTAC)	0.581
TAGCCTACTTGGGTTCTAACCTGTTGCGT (site TAGCCTACTCC)	0.0265
TAGCCTACTTGGGTTCTAACCTGTTGCGT (site TAGCCTACTGC)	0.0357
TAGCCTACTTGGGTTCTAACCTGTTGCGT (site TAGCCTACTTC)	0
TAGCCTTCTTGGGTTCTAACCTGTTGCAG (site TAGCCTTCTCT)	1.14
TAGCCTTCTTGGGTTCTAACCTGTTGCAG (site TAGGCGTCTCT)	0.0752
TAGCGGACTTGGGTTCTAACCTGTTGCCT (site TAGCAGACTAG)	0.106
TAGCGGACTTGGGTTCTAACCTGTTGCCT (site TAGCCGACTAG)	0
TAGCGGACTTGGGTTCTAACCTGTTGCCT (site TAGCGGACTAG)	1.28
TAGCGGACTTGGGTTCTAACCTGTTGCCT (site TAGCTGACTAG)	0.0737
TAGCGTCCTTGGGTTCTAACCTGTTGCAC (site TAGCGTCCTGT)	1.11
TAGCGTCCTTGGGTTCTAACCTGTTGCAC (site TCGCGTCCTTT)	0.157
TAGCTCCCTTGGGTTCTAACCTGTTGCCA (site TAGCTCCCTAG)	0.676
TAGCTCCCTTGGGTTCTAACCTGTTGCCA (site TAGCTCCCTCG)	0.0851
TAGCTCCCTTGGGTTCTAACCTGTTGCCA (site TAGCTCCCTGG)	0.0734
TAGCTCCCTTGGGTTCTAACCTGTTGCCA (site TAGCTCCCTTG)	0.662

Sequence	recombinant barcode read abundance (log10)
TAGCTTACTTGGGTTCTAACCTGTTGCCG (site TAACTTACTAG)	0.114
TAGCTTACTTGGGTTCTAACCTGTTGCCG (site TAGCTTACTCG)	0.523
TAGGATACTTGGGTTCTAACCTGTTGCAA (site TAGGATACTAT)	0.0732
TAGGATACTTGGGTTCTAACCTGTTGCAA (site TAGGATACTCT)	0.401
TAGGATACTTGGGTTCTAACCTGTTGCAA (site TAGGATACTGT)	0.0992
TAGGATACTTGGGTTCTAACCTGTTGCAA (site TAGGATACTTT)	1.98
TAGGATTCTTGGGTTCTAACCTGTTGCGC (site ACCATACCTAT)	0.114
TAGGATTCTTGGGTTCTAACCTGTTGCGC (site TAGGATTCTGC)	2.55
TAGGATTCTTGGGTTCTAACCTGTTGCGT (site TAGGATGCTAC)	0.144
TAGGATTCTTGGGTTCTAACCTGTTGCGT (site TAGGATTCTAC)	2.61
TAGGCATCTTGGGTTCTAACCTGTTGCTC (site TAGACATCTGA)	0.206
TAGGCATCTTGGGTTCTAACCTGTTGCTC (site TAGCCATCTGA)	0.36
TAGGCATCTTGGGTTCTAACCTGTTGCTC (site TAGGCATCTGA)	0.95
TAGGCATCTTGGGTTCTAACCTGTTGCTC (site TAGTCATCTGA)	0.115
TAGGCCACTTGGGTTCTAACCTGTTGCTT (site TAGGCCACTAA)	1.61
TAGGCCACTTGGGTTCTAACCTGTTGCTT (site TAGGCCACTAC)	1.17
TAGGCCACTTGGGTTCTAACCTGTTGCTT (site TAGGCCACTAG)	0.36
TAGGCCACTTGGGTTCTAACCTGTTGCTT (site TAGGCCACTAT)	0.539
TAGGCGACTTGGGTTCTAACCTGTTGCCA (site ACCTTAGCTAA)	0.119
TAGGCGACTTGGGTTCTAACCTGTTGCCA (site TAGGCGACTTG)	0.186
TAGGCTACTTGGGTTCTAACCTGTTGCAG (site TAGGCTACTAT)	0.206
TAGGCTACTTGGGTTCTAACCTGTTGCAG (site TAGGCTACTCT)	1.97

Sequence	recombinant barcode read abundance (log10)
TAGGCTACTTGGGTTCTAACCTGTTGCAG (site TAGGCTACTGT)	0.0351
TAGGCTACTTGGGTTCTAACCTGTTGCAG (site TAGGCTACTTT)	0.216
TAGGCTACTTGGGTTCTAACCTGTTGCAT (site TAGGCTACTAT)	1.06
TAGGCTACTTGGGTTCTAACCTGTTGCAT (site TAGGCTACTCT)	0.301
TAGGCTACTTGGGTTCTAACCTGTTGCAT (site TAGGCTACTGT)	0.132
TAGGCTACTTGGGTTCTAACCTGTTGCAT (site TAGGCTACTTT)	0.00693
TAGGGAGCTTGGGTTCTAACCTGTTGCAT (site TAGAGAGCTCT)	0.0779
TAGGGAGCTTGGGTTCTAACCTGTTGCAT (site TAGGGAGCTAT)	2.8
TAGGGCACTTGGGTTCTAACCTGTTGCCG (site TAGGGCACTCA)	0.119
TAGGGCACTTGGGTTCTAACCTGTTGCCG (site TAGGGCACTCG)	1.58
TAGGGCCCTTGGGTTCTAACCTGTTGCCT (site AAGGGCCCTAG)	0.111
TAGGGCCCTTGGGTTCTAACCTGTTGCCT (site CAGGGCCCTAG)	0.0445
TAGGGCCCTTGGGTTCTAACCTGTTGCCT (site GAGGGCCCTAG)	0.0503
TAGGGCCCTTGGGTTCTAACCTGTTGCCT (site TAGGGCCCTAG)	1.15
TAGGGTACTTGGGTTCTAACCTGTTGCGC (site ACAACCTCTCG)	0.0219
TAGGGTACTTGGGTTCTAACCTGTTGCGC (site TAGGGTACTGC)	2.85
TAGGTACCTTGGGTTCTAACCTGTTGCAT (site TAGGTACCTAT)	1.98
TAGGTACCTTGGGTTCTAACCTGTTGCAT (site TAGGTCCCTAT)	0.223
TAGGTACCTTGGGTTCTAACCTGTTGCAT (site TAGGTGCCTAT)	0.0753
TAGGTACCTTGGGTTCTAACCTGTTGCAT (site TAGGTTCCTAT)	0.0968
TAGGTCGCTTGGGTTCTAACCTGTTGCAT (site TAGATCGCTCT)	0.171
TAGGTCGCTTGGGTTCTAACCTGTTGCAT (site TAGGTCGCTAT)	2.48

Sequence	recombinant barcode read abundance (log10)
TAGGTGACTTGGGTTCTAACCTGTTGCGG (site TAGGTGACTCC)	2.13
TAGGTGACTTGGGTTCTAACCTGTTGCGG (site TAGGTGCCTCC)	0.285
TAGGTGGCTTGGGTTCTAACCTGTTGCCT (site TAGGTGGCTAG)	0.463
TAGGTGGCTTGGGTTCTAACCTGTTGCCT (site TGGGCGGCTAG)	0.105
TAGGTGTCTTGGGTTCTAACCTGTTGCCT (site TAAGTGTCTAG)	1.04
TAGGTGTCTTGGGTTCTAACCTGTTGCCT (site TACGTGTCTAG)	0.181
TAGGTGTCTTGGGTTCTAACCTGTTGCCT (site TAGGTGTCTAG)	1.33
TAGGTGTCTTGGGTTCTAACCTGTTGCCT (site TATGTGTCTAG)	0.0655
TAGGTTCCTTGGGTTCTAACCTGTTGCCT (site TAGGTTCCTAG)	0.348
TAGGTTCCTTGGGTTCTAACCTGTTGCCT (site TCGGTTCCTAG)	0.161
TAGTACCCTTGGGTTCTAACCTGTTGCAC (site TAGTACCCTAT)	0.169
TAGTACCCTTGGGTTCTAACCTGTTGCAC (site TAGTACCCTCT)	0.298
TAGTACCCTTGGGTTCTAACCTGTTGCAC (site TAGTACCCTGT)	1.28
TAGTACCCTTGGGTTCTAACCTGTTGCAC (site TAGTACCCTTT)	0.0304
TAGTACCCTTGGGTTCTAACCTGTTGCAG (site TAGTACCCTAT)	0.0395
TAGTACCCTTGGGTTCTAACCTGTTGCAG (site TAGTACCCTCT)	1.23
TAGTACCCTTGGGTTCTAACCTGTTGCAG (site TAGTACCCTGT)	0.152
TAGTACCCTTGGGTTCTAACCTGTTGCAG (site TAGTACCCTTT)	0.0625
TAGTACCCTTGGGTTCTAACCTGTTGCTG (site TAGTAACCTAA)	0.434
TAGTACCCTTGGGTTCTAACCTGTTGCTG (site TAGTACCCTCA)	1.92
